The compounds below were run against T1, human CCR10 (Homo sapiens, UniProt P46092) (assay: CCR10 antagonistic effect: calcium assay of human CCR10 (CTACK-induced increase of intracellular calcium in hCCR10G16 cells)). Conditions: at a concentration of not more than 1000 nmol/L; human CCR10-expressing hCCR10G16 cells, 300 nmol/L CTACK added; read-out: inhibition of increase in the calcium ion concentration.
T1 construct: expressed in transfected cells; host or cells: KJMGER8 cells (Namalwa cell-derived line), beta-estradiol-induced; hCCR10G16 cells
T1 sequence (P46092 1-362): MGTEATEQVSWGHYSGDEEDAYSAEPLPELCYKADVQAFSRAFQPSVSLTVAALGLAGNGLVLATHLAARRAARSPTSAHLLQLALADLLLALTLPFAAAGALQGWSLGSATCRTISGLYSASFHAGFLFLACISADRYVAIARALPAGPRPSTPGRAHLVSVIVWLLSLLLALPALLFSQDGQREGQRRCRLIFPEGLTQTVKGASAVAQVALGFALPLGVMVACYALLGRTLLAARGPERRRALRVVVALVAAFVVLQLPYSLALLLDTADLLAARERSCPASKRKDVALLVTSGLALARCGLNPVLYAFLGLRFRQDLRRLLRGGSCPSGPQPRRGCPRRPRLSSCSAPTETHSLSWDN
Format: cell-based
Procedure, shortened: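 KJMGER8-derived hCCR10G16 cells (CCR10 plus Gα16, induced 24 h with 10 nmol/L β-estradiol), Fluo-3 loaded, preincubated with compound 30 min at 37 °C. Stimulated with CTACK (300 nmol/L solution before addition); calcium read ~5 min by FDSS, max−min fluorescence; % inhibition vs control.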

Inhibition at up to 1 µM, ≥ 50%:
Cc1cc(F)ccc1Nc1cc(S(=O)(=O)NC(=O)C2CC2)ncc1C(=O)N1CCC(c2ccc(F)cc2)CC1 [Compound 160, N-{4-(4-fluoro-2-methylphenylamino)-5-[4-(4-fluorophenyl)piperidine-1-carbonyl]pyridin-2-ylsulfonyl}cyclopropanecarboxamide]
N#Cc1ccc(Cl)cc1Nc1c(C(=O)N2CCC(c3ccc(F)cc3)CC2)cnc(S(N)(=O)=O)c1Cl [Compound 290, 3-chloro-4-(5-chloro-2-cyanophenylamino)-5-[4-(4-fluorophenyl)piperidine-1-carbonyl]pyridine-2-sulfonamide]
Cc1cc(F)ccc1Nc1cc(S(=O)(=O)N2CCCC2C(=O)O)ncc1C(=O)N1CCC(c2ccc(F)cc2)CC1 (stereo not drawn) [Compound 120, 1-{4-(4-fluoro-2-methylphenylamino)-5-[4-(4-fluorophenyl)piperidine-1-carbonyl]pyridin-2-ylsulfonyl}pyrrolidine-2-carboxylic acid]
CCNC(=O)NS(=O)(=O)c1cc(Nc2cc(C)c(Cl)cc2Cl)c(C(=O)N2CCC(c3ccc(F)cc3)CC2)cn1 [Compound 164, 4-(2,4-dichloro-5-methylphenylamino)-N-(ethylcarbamoyl)-5-[4-(4-fluorophenyl)piperidine-1-carbonyl]pyridine-2-sulfonamide]
NS(=O)(=O)c1ncc(C(=O)N2CCC(c3ccc(F)cc3)CC2)c(Nc2c(F)cccc2F)c1Cl [Compound 182, 3-chloro-4-(2,6-difluorophenylamino)-5-[4-(4-fluorophenyl)piperidine-1-carbonyl]pyridine-2-sulfonamide]
NS(=O)(=O)c1ncc(C(=O)N2CCC(c3ccccc3)CC2)c(Nc2cccc(Cl)c2)c1Cl [Compound 308, 3-chloro-4-(3-chlorophenylamino)-5-(4-phenylpiperidine-1-carbonyl)pyridine-2-sulfonamide]
Cc1c(S(=O)(=O)Nc2ccon2)ncc(C(=O)N2CCC(c3ccc(F)cc3)CC2)c1NCCc1ccccc1 [Compound 222, 5-[4-(4-fluorophenyl)piperidine-1-carbonyl]-N-(isoxazol-3-yl)-3-methyl-4-(phenethylamino)pyridine-2-sulfonamide]
Cc1cc(F)ccc1Nc1cc(S(=O)(=O)O)ncc1C(=O)N1CCC(c2ccc(F)cc2)CC1 [Compound 1, 4-(4-fluoro-2-methylphenylamino)-5-[4-(4-fluorophenyl)piperidine-1-carbonyl]pyridine-2-sulfonic acid]
Cc1cc(Nc2cc(S(N)(=O)=O)ncc2C(=O)N2CCC(c3ccc(F)cc3)CC2)c(Cl)cc1F [Compound 52, 4-(2-chloro-4-fluoro-5-methylphenylamino)-5-[4-(4-fluorophenyl)piperidine-1-carbonyl]pyridine-2-sulfonamide]
Cc1cc(NS(=O)(=O)c2ncc(C(=O)N3CCC(c4ccc(F)cc4)CC3)c(Nc3ccc(F)cc3)c2C)sn1 [Compound 299, 5-[4-(4-fluorophenyl)piperidine-1-carbonyl]-4-(4-fluorophenylamino)-3-methyl-N-(3-methylisothiazol-5-yl)pyridine-2-sulfonamide]
NS(=O)(=O)c1ncc(C(=O)N2CC(c3ccc(F)cc3)C2)c(Nc2cccc(Cl)c2)c1Cl [Compound 283, 3-chloro-4-(3-chlorophenylamino)-5-[3-(4-fluorophenyl)azetidine-1-carbonyl]pyridine-2-sulfonamide]
Cc1cccc(Sc2c(C(=O)N3CCC(c4ccc(F)cc4)CC3)cnc(S(N)(=O)=O)c2Cl)c1 [Compound 210, 3-chloro-5-[4-(4-fluorophenyl)piperidine-1-carbonyl]-4-(m-tolylthio)pyridine-2-sulfonamide]
Cc1cc(F)ccc1Nc1c(C(=O)N2CCC(c3ccc(F)cc3)CC2)cnc(S(N)(=O)=NC(=O)c2ccccc2)c1Cl (stereo not drawn) [Compound 194, 3-chloro-4-(4-fluoro-2-methylphenylamino)-5-[4-(4-fluorophenyl)piperidine-1-carbonyl]-N′-benzoylpyridine-2-sulfonimidamide]
Cc1cnc(CNS(=O)(=O)c2cc(Nc3ccc(F)cc3C)c(C(=O)N3CCC(c4ccc(F)cc4)CC3)cn2)cn1 [Compound 134, 4-(4-fluoro-2-methylphenylamino)-5-[4-(4-fluorophenyl)piperidine-1-carbonyl]-N-[(5-methylpyrazin-2-yl)methyl]pyridine-2-sulfonamide]
Cc1c(S(=O)(=O)Nc2ccon2)ncc(C(=O)N2CCC(c3ccc(F)cc3)CC2)c1Nc1cccc(Cl)c1F [Compound 265, 4-(3-chloro-2-fluorophenylamino)-5-[4-(4-fluorophenyl)piperidine-1-carbonyl]-N-(isoxazol-3-yl)-3-methylpyridine-2-sulfonamide]
Cc1ccc(F)c(Nc2cc(S(N)(=O)=O)ncc2C(=O)N2CCC(c3ccc(F)cc3)CC2)c1 [Compound 68, 4-(2-fluoro-5-methylphenylamino)-5-[4-(4-fluorophenyl)piperidine-1-carbonyl]pyridine-2-sulfonamide]
NS(=O)(=O)c1ncc(C(=O)N2CCC(c3ccc(F)cc3)CC2)c(Nc2ccc(OC(F)F)cc2)c1Cl [Compound 312, 3-chloro-4-[4-(difluoromethoxy)phenylamino]-5-[4-(4-fluorophenyl)piperidine-1-carbonyl]pyridine-2-sulfonamide]
Cc1cc(F)ccc1Nc1c(C(=O)N2CCC(c3ccc(F)cc3)CC2)cnc(S(=O)(=O)Nc2ccon2)c1Cl [Compound 190, 3-chloro-4-(4-fluoro-2-methylphenylamino)-5-[4-(4-fluorophenyl)piperidine-1-carbonyl]-N-(isoxazol-3-yl)pyridine-2-sulfonamide]
Cc1cc(F)ccc1Nc1c(C(=O)N2CCC(c3ccc(F)cc3)CC2)cnc(S(=O)(=O)Nc2c(C)noc2C)c1Cl [Compound 189, 3-chloro-N-(3,5-dimethylisoxazol-4-yl)-4-(4-fluoro-2-methylphenylamino)-5-[4-(4-fluorophenyl)piperidine-1-carbonyl]pyridine-2-sulfonamide]
Cc1cc(Nc2cc(S(N)(=O)=O)ncc2C(=O)N2CCC(c3ccc(F)cc3)CC2)c(Cl)cc1Cl [Compound 51, 4-(2,4-dichloro-5-methylphenylamino)-5-[4-(4-fluorophenyl)piperidine-1-carbonyl]pyridine-2-sulfonamide]
Cc1ccc(C)c(Nc2cc(S(N)(=O)=O)ncc2C(=O)N2CCC(c3ccc(F)cc3)CC2)c1 [Compound 53, 4-(2,5-dimethylphenylamino)-5-[4-(4-fluorophenyl)piperidine-1-carbonyl]pyridine-2-sulfonamide]
Cc1cccc(Oc2c(C(=O)N3CCC(c4ccc(F)cc4)CC3)cnc(S(=O)(=O)Nc3ccon3)c2C)c1 [Compound 249, 5-[4-(4-fluorophenyl)piperidine-1-carbonyl]-N-(isoxazol-3-yl)-3-methyl-4-(m-tolyloxy)pyridine-2-sulfonamide]
NS(=O)(=O)c1ncc(C(=O)N2CCC3(CC2)COc2ccccc23)c(Nc2cccc(Cl)c2)c1Cl [Compound 307, 3-chloro-4-(3-chlorophenylamino)-5-(2H-spiro[benzofuran-3,4′-piperidine]-1′-ylcarbonyl)pyridine-2-sulfonamide]
Cc1ccc(F)cc1Nc1cc(S(N)(=O)=O)ncc1C(=O)N1CCC(c2ccc(F)cc2)CC1 [Compound 62, 4-(5-fluoro-2-methylphenylamino)-5-[4-(4-fluorophenyl)piperidine-1-carbonyl]pyridine-2-sulfonamide]
Cc1cc(F)ccc1Nc1cc(S(=O)(=O)N2CCOC2=O)ncc1C(=O)N1CCC(c2ccc(F)cc2)CC1 [Compound 143, 3-{4-(4-fluoro-2-methylphenylamino)-5-[4-(4-fluorophenyl)piperidine-1-carbonyl]pyridin-2-ylsulfonyl}oxazolidin-2-one]
COC(=O)C1CCCN1S(=O)(=O)c1cc(Nc2ccc(F)cc2C)c(C(=O)N2CCC(c3ccc(F)cc3)CC2)cn1 (stereo not drawn) [Compound 116, methyl 1-{4-(4-fluoro-2-methylphenylamino)-5-[4-(4-fluorophenyl)piperidine-1-carbonyl]pyridin-2-ylsulfonyl}pyrrolidine-2-carboxylate]
Cc1cccc(Nc2cc(S(N)(=O)=O)ncc2C(=O)N2CCC(c3ccc(F)cc3)CC2)c1C [Compound 65, 4-(2,3-dimethylphenylamino)-5-[4-(4-fluorophenyl)piperidine-1-carbonyl]pyridine-2-sulfonamide]

From US9701689B2, “Substituted pyridines and pyridazines as CCR10 receptor inhibitors” (KYOWA HAKKO KIRIN CO., LTD., priority 2012, dated 2017)
